Experimental data: ChEMBL document CHEMBL3507680, “University of Dundee, Gates Library screen for HepG2 cell viability”

Assay: Human HepG2 cell viability assay in 384 well format
Type: toxicity, cell-based
Parameters: dose 125 nL, time 70.5 hour; cytotoxicity at 70.5 h: concentration not given beside the values
Conditions: HepG2 cells, read-out: Inhibition

Row | SMILES | cytotoxicity at 70.5 h
1 | Cc1noc([C@@H]2CC[C@@H]3[C@@H](CCN3S(=O)(=O)c3ccccc3)O2)n1 | -14.9%
2 | CCS(=O)(=O)N1CCC2(CCCN(Cc3ccc(F)c(F)c3)C2=O)C1 (stereo unspecified) | 1.7%
3 | O=C(c1cc(=O)n(-c2ccccc2)[nH]1)N1CCOCC(O)C1 (stereo unspecified) | 22.9%
4 | COCCC(=O)NCc1ccc(-c2ncncc2C(=O)N(C)C)cc1 | 6.32%
5 | CC(NC(=O)CNCCn1cccn1)c1ccc2c(c1)OCCO2 (stereo unspecified) | -7.87%
6 | NC(=O)CN(Cc1ccc(Br)cc1)C(=O)c1ccccn1 | -4.46%
7 | CCn1nc(C)c2ccn(CC(=O)NCCN3CCCCC3)c(=O)c21 | -5.13%
8 | COc1c(CNCc2cccc(Cn3ccnc3C)c2)c(C)nn1C | 13.2%
9 | O=C(NCc1cccs1)c1[nH]nc2c1CS(=O)(=O)CC2 | -0.606%
10 | C[C@@H]1CN(c2cc(N3CCC(O)CC3)ncn2)C[C@@]1(O)C1CC1 | -0.962%
11 | COCCCn1cnnc1CNc1cc(C)nc2ccnn12 | -4.02%
12 | O=S(=O)(c1cccnc1)N1CCN(Cc2nc(-c3cccs3)cs2)CC1 | -14.7%
13 | O=c1[nH]nc2c(N3CCC(NC4CCOCC4)CC3)nccn12 | -11.2%
14 | c1[nH]c(CC2CCCC2)nc1CN1CCCC2(CCOC2)C1 (stereo unspecified) | -8.93%
15 | COc1cc(CNCCc2cnn(C)c2)cc2c1OCO2 | -8.59%
16 | NC(=O)CN1CCN(CC2CC2)c2ccccc21 | 13.1%
17 | CSCCNC(=O)C1CCC(=O)N(C2CCCC2)C1 (stereo unspecified) | 0.162%
18 | COCCn1ccc2cc(NC(=O)N(C)C(C)CSC)ccc21 (stereo unspecified) | 1.74%
19 | COc1cccc2c1OCC(NC(=O)NCCC(N)=O)C2 (stereo unspecified) | -7.75%
20 | C[C@H]1C[C@@H]2CCN(C(=O)c3cccn3C)C[C@H]2O1 | -12.7%
21 | CC(C)n1c(C2CCCN(CC(=O)NC(N)=O)C2)nc2ccccc21 (stereo unspecified) | -1.95%
22 | CCn1ncc2c1CCCC2NCc1cccc2c1OCCO2 (stereo unspecified) | -13.8%
23 | O=C1NCC2(CCCN(C(=O)Nc3cccc(-c4cscn4)c3)CC2)O1 (stereo unspecified) | 36%

Row | SMILES | cytotoxicity at 70.5 h
24 | Cc1nn(C)c2cnn(Cc3ccc(C(=O)N4CCN(C)CC4)o3)c12 | 28.4%
25 | O=C1N(CC2CCC2)CCCC12CCN(S(=O)(=O)c1cccnc1)C2 (stereo unspecified) | -4.23%
26 | O=C(NCCn1cccn1)C1CCC(=O)N(CC2CCCCC2)C1 (stereo unspecified) | 18%
27 | COc1ccccc1-c1cc(C(=O)N(C)C)nc2c1cnn2C | -11.4%
28 | COCCNC(=O)[C@H]1C[C@@H]2CCN(CCc3ccccc3)C[C@H]2O1 | -11.2%
29 | Cc1noc([C@H]2C[C@@H]3CCN(c4nnc(C)s4)C[C@H]3O2)n1 | -8.11%
30 | Cc1cc(=O)[nH]c(-n2nc(C)c(CCC(=O)NCc3ccco3)c2C)n1 | 31.1%
31 | CSc1ncnc(NCc2ccco2)c1C#N | -12.3%
32 | Cc1c(C(=O)N2CCC2(C)C)nnn1-c1cccc2cccnc12 | -3.77%
33 | CC(Oc1ccccc1)C(=O)N1CCCN(Cc2cscn2)CC1 (stereo unspecified) | 6.19%
34 | CCN(CC)CCn1cc(NC2CCSCC2)cn1 | -1.75%
35 | CN(C)C(=O)N1Cc2ccccc2C2(CCNCC2)C1 | 28.5%
36 | COc1ccccc1N1CCN(C(=O)Cn2nccc2C)CC1(C)C | -3.69%
37 | CCCS(=O)(=O)c1ncc(CN2CCC(CO)CC2)n1CC1CCCO1 (stereo unspecified) | -4.07%
38 | Cc1nnc(CN(C)CCCOc2cccc(Cl)c2)o1 | 0.527%
39 | Cc1cnc2c(c1NCc1ccc3c(c1)OCO3)c(=O)n(C)c(=O)n2C | 46.5%
40 | CC1CN(C)CCN1C(=O)Nc1nc(-c2cccn2C)cs1 (stereo unspecified) | -13.9%
41 | Cc1cc(C(=O)N2CCCCC2C)ccc1NCC(=O)N1CCOCC1 (stereo unspecified) | 26.9%
42 | Cc1nn(CC(O)CN2CCC(C)CC2)c(=O)c(C#N)c1C (stereo unspecified) | -17%
43 | Cc1cc(CN(C)C(=O)NC2CCN(Cc3ccccc3)C2)no1 (stereo unspecified) | 7.2%
44 | O=S1(=O)NC(c2ccnc(N3CCCC3)n2)=Nc2ccccc21 | -3.65%
45 | CNS(=O)(=O)c1ccc(CNC(=O)c2cccc(C)n2)cc1 | 16.9%
46 | Cc1cc(C)cc(-n2ncc3c2CCCC3N)c1 (stereo unspecified) | -5.06%

Row | SMILES | cytotoxicity at 70.5 h
47 | CCNc1ncc(C(=O)NC(c2ccccc2)c2ccco2)cn1 (stereo unspecified) | -9.5%
48 | CN(C)C(=O)COC[C@@H]1CC[C@H]2[C@H](CCN2c2ccccn2)O1 | 44.1%
49 | Cc1ccc(C(=O)Nc2ccc(N(C)C)nc2)n1C | 3.75%
50 | O=C(c1cnn2cccnc12)N1CCCC(n2ccnc2)C1 (stereo unspecified) | -3.58%
51 | CCC(=O)NCC(=O)NCC1(c2c(F)cccc2F)CCCC1 | -4.06%
52 | CC(C)N1CCC(C(=O)N(C)CC(=O)c2ccc(O)cc2)CC1 | -17.5%
53 | CS(=O)(=O)NCCC1CCCCN1C(=O)NCc1ccccn1 (stereo unspecified) | -18.6%
54 | CSCC(C)N(C)S(=O)(=O)c1ccc(Cl)cc1C#N (stereo unspecified) | -5.66%
55 | CN(CC(=O)N1CCCC1)Cc1nc2c(cnn2C)c(=O)[nH]1 | -10.6%
56 | O=C(NCCNc1ccccn1)Nc1cc(C(F)(F)F)c[nH]c1=O | -3.73%
57 | Cn1ccc(NCc2cc3cc(F)ccc3o2)n1 | -4.66%
58 | CN1CCO[C@@H]2CN(C(=O)c3ccc4ncccc4c3)CC[C@@H]2C1 | -8.09%
59 | CCc1noc(CN(Cc2ccc3c(c2)OCO3)C2CCCC2)n1 | -10.9%
60 | CCCC(=O)NCC(=O)Nc1cc(F)ccc1SCC(F)F | 2.19%
61 | COc1ccncc1NC(=O)c1[nH]nc(C(C)C)c1Br | -3.93%
62 | CCS(=O)(=O)N1CCc2ncnc(C)c2CC1 | -1.43%
63 | O[C@@H]1C[C@@](CNCc2cccc(Cl)c2)(COc2cnccn2)C[C@@H]1O | -12%
64 | Cc1nn(CC(=O)O)c(C)c1NS(=O)(=O)c1cccc2ccccc12 | -6.18%
65 | Fc1ccc(CN2C[C@@H]3OCCN(CC4CCCO4)[C@@H]3C2)cc1 (stereo partly specified) | 11%
66 | COCCN1CCN(C(=O)c2cc(C(C)C)on2)[C@H]2CS(=O)(=O)C[C@H]21 | 2.11%
67 | CN1CCN(CCCNC(=O)CCc2nc3cc(Br)cnc3[nH]2)CC1 | -31%
68 | CC(C)CC(CC(C)C)NC(=O)c1ccn(C)c(=O)c1 | 1.9%
69 | O[C@H]1CCN(CC2CCOC2)[C@H]1Cc1ccncc1 (stereo partly specified) | -11.6%

Row | SMILES | cytotoxicity at 70.5 h
70 | O=C(C1CC1)N(Cc1ccc2cc[nH]c2c1)C1CC1 | -22.5%
71 | COc1ccc(C2CCCN2C(=O)NCCCn2ccnc2)cc1 (stereo unspecified) | 16.1%
72 | CCC(C)(NCC(=O)NC(C)C)c1nc(C)cs1 (stereo unspecified) | -3.79%
73 | Cn1ccnc1C(=O)NCc1cnc2n1CCN(CC1CC1)CC2 | -0.996%
74 | Cc1ccc(CN(Cc2ccccn2)C(=O)[C@H]2CC[C@@H](N)C2)s1 | -10.2%
75 | Cc1cc(N2CCN(Cc3nccn3C)CC2)cc(C)n1 | 18.4%
76 | Cc1cc(O)nc(C2CN(CC3(O)CCOCC3)CCO2)n1 (stereo unspecified) | 8.89%
77 | CCC[C@@H](NC(N)=O)C(=O)N1CCc2c(Cl)cccc2C1 | -2.76%
78 | Cc1ccccc1-c1cc(NC(=O)CC(C)C)n(CCO)n1 | 5.13%
79 | Cc1ccc(C)c(-n2ccc3nc(N4CCCC4)ncc3c2=O)c1 | -7.78%
80 | O=C1[C@@H]2CCN(CC3CC3)C[C@@H]2OCCN1c1cccnc1 | 6.28%
81 | O=C(c1ccc[nH]1)N1CCC(c2nccn2Cc2ccncc2)CC1 | -0.778%
82 | O=C(c1ccc(-n2cc(Br)cn2)cc1)N1CCN(c2cnccn2)CC1 | -10%
83 | COC1CCN(C(=O)c2nn(-c3ccc(C(C)C)cc3)cc2O)CC1 | 10.9%
84 | COc1ccccc1CC1CCCN(CCC#N)C1 (stereo unspecified) | -13.9%
85 | Cc1ccc2nc(CN3CCCCC3CCN3CCOCC3)cn2c1 (stereo unspecified) | -10.8%
86 | CNC(=O)C1CCN(C(=O)c2coc(COc3ccc(OC)cc3)n2)C1 (stereo unspecified) | -2.27%
87 | COc1ccc(CN2CCO[C@H]3[C@H](OCCN4CCCC4)CC[C@@H]32)cc1 | -9.88%
88 | O=C(C[C@@H]1COC[C@H]2CN(Cc3ccc(F)cc3)C[C@@H]12)N1CCOCC1 | 21.2%
89 | CN(C)CCN1CCOCC2(CCCN(C(=O)c3ccoc3)C2)C1 (stereo unspecified) | 1.59%
90 | Cc1noc2ncnc(NC(CC(C)(C)C)c3cccnc3)c12 (stereo unspecified) | -14%
91 | Cc1noc(C)c1C(=O)N1C[C@H]2CC[C@@H]1CN(c1cnccn1)C2 | -5.44%
92 | CCc1nc(C2CCCN2C(=O)c2ccc(=O)n(CC)n2)no1 (stereo unspecified) | 4.08%

Row | SMILES | cytotoxicity at 70.5 h
93 | CC1(C(=O)Nc2ccc(F)c(-n3cccc3)c2)CCOCC1 | -6.66%
94 | Cc1cc(C)nc(Nc2cccc(C3CCCN(S(C)(=O)=O)C3)n2)n1 (stereo unspecified) | 46.8%
95 | C1CCc2nnc(CNc3nc(C4CC4)nc4c3CCNCC4)n2CC1 | -5.38%
96 | Cc1cc(CNC(=O)Nc2cc(F)cc(N3CCCC3)c2)no1 | -13.7%
97 | O=C(C1CCCCC1)N1CCN(Cc2nc(-c3ccco3)no2)CC1 | -5.01%
98 | COc1cc2c(cc1CN1C[C@@H](CN3CCOCC3)[C@@H](CO)C1)CCC2 | -2.99%
99 | Cc1nonc1OCCNC(=O)COc1ccc(Cl)cc1Cl | -13.9%
100 | Cn1cc(CN2C[C@H]3CCC[C@@H](CNc4ncccn4)[C@H]3C2)cn1 | -3.23%
101 | CC1=Nc2c(c(=O)[nH]n2C2CCOCC2)C(c2cccc(Br)c2)S1 (stereo unspecified) | 4.78%
102 | CC(Oc1ccccc1C(F)(F)F)C(=O)NS(=O)(=O)C(C)C (stereo unspecified) | 1.98%
103 | Cc1ncccc1CNC(CCO)C1CCCCC1 (stereo unspecified) | 1.16%
104 | CC(=O)N1CCC(c2nnc3ccc(C(=O)NC(C)C)cn23)C1 (stereo unspecified) | -1.85%
105 | Cn1cc(Cl)cc1C(=O)N1CCN(Cc2ccsc2)CC1 | 0.559%
106 | CCn1cc(CN2CCc3nc(N4CCOCC4)nc(O)c3CC2)cn1 | 7.44%
107 | CC(C)n1nc(CN2CCOCC2)c2c1CN(Cc1ccsc1)C2 | -4.8%
108 | Cc1nnc(NC(=O)NCc2ccc(N3CCOCC3)nc2)s1 | -5.81%
109 | CCOc1cc(C)nc(N2CCN(C(=O)c3cn[nH]c3CC)CC2)n1 | -3.76%
110 | CCc1noc(C(C)N(C)Cc2ccc(OC)c(OC)c2)n1 (stereo unspecified) | 1.83%
111 | CNC(=O)c1cccnc1NCCOc1ccc(CC#N)cc1 | -0.53%
